Assay [1] addresses T1, immunoprecipitated HA-GPR55 (Homo sapiens, UniProt Q9Y2T6).
T1 construct: expressed in transfected cells; host or cells: HeLa cells, transient transfection; anti-HA immunoprecipitate on beads
Put plainly: FITC-peptide binding to immunoprecipitated HA-GPR55. The note with it: FITC-P1 40 μg/ml (26.8 μM), 2 h at 37°C; three independent experiments in triplicate.

The test system of a further assay is GPR55 (HeLa cells). Briefly: FITC-peptide binding to HeLa cells silenced for GPR55 (siRNA, shRNA) or re-expressing HA-GPR55 (FACS). The note with it: 40 μg/ml, 1 h at 37°C. Details: species or system human. As for the experimental part:
For transient interference of GPR55, HeLa cells were plated at 150,000 cells/6-well plate in growth medium without antibiotics, and 24 h later they were transfected with 75 pmol/well non-targeting #2 siRNA (siNT) or human GPR55-targeting siRNAs (D-00581-05) (siGPR55) (siGENOME, Dharmacon, Chicago, IL, USA), using Lipofectamine 2000, according to the manufacturer instructions. Twenty-four hours later, the cells were detached by trypsinization, plated again at 150,000 cells/6-well plate, and 10 h later they were re-transfected with siNT or with siGPR55. Forty-eight hours later, the cells were analyzed. For stable interference of GPR55, HeLa cells were transfected with 1.7 μg/well OmicsLink shRNA expression clone CSHCTR001-CU6 (shCtrl) or clone HSH022476-3-CU6 (shGPR55) from GeneCopoeia (Rockville, MD, USA), using Lipofectamine 2000, according to the manufacturer instructions. Forty-eight hours after transfection, HeLa clones stably expressing shRNAs were selected in growth medium containing 0.3 μg/ml puromycin.
Wild-type HeLa cells plated at a density of 150,000 cells/6-well plate, or cells stable interfered with shCtrl and shGPR55 plated at a density of 120,000 cells/6-well plate, or HeLa cells transiently interfered (48 h after the first interference) were washed twice with HBSS^++, and incubated with the indicated concentrations of the FITC-labeled peptides for the indicated times at 37°C in 1 ml HBSS^++ plus 0.1% fatty-acid-free BSA and 25 mM HEPES, pH 7.5. Then, the cells were washed twice with PBS plus 0.01% Tween-20, and once with PBS, and incubated for 5 min at 37°C with PBS with 2 mM EDTA, detached by scraping, and resuspended in PBS plus 3% BSA. Cell-associated FITC fluorescence was evaluated using FACS, after addition of 4 μg/ml propidium iodide, to exclude dead cells from the FACS gating. Fluorescence intensity was evaluated as % FITC-positive cells and mean fluorescence, recorded before (for peptide binding) and after (for peptide internalization) addition of 0.2% trypan blue to quench the fluorescence of the extracellular bound peptides.

In the next assay the test system is HA-GPR55. Briefly: confocal co-localization of FITC-P1 with HA-GPR55 in HeLa cells. Type of assay: cell-based, human. The note with it: 40 μg/ml (26.8 μM) FITC-P1, 1 h, live HeLa cells overexpressing HA-GPR55. As for the experimental part:
HEK293 or CHO cells were rinsed with PBS, fixed for 10 min at room temperature in 4% (v/v) paraformaldehyde, and permeabilized in 0.02% saponin, 0.5% BSA, and 50 mM ammonium chloride in PBS (blocking solution). Then, the cells were stained with an anti-HA antibody (1:1,000) for 1 h at room temperature for GPR55 visualization, followed by 30 min at room temperature with Alexa488- or Alexa568-conjugated anti-mouse secondary antibodies (1:800), with 33 nM Alexa546-labeled phalloidin (Life Technologies) for filamentous actin visualization, or 2 μg/ml Hoechst (Sigma) for nuclei staining, with all reagents diluted in blocking solution. Then, the cells were washed three times with PBS plus 0.02% Tween-20, and the coverslips were mounted and examined by confocal microscope (LSM 510; Zeiss, Germany), with images acquired using the ZEN 2.1 (black) program (Carl Zeiss Microscopy GmbH 1997-2015). For localization studies of FITC-P1 and GPR55 in live HeLa cells, the cells were incubated with an anti-HA antibody (1:1,000) in PBS plus 3% BSA for 1 h on ice, then washed with PBS, and incubated with an Alexa568-conjugated anti-mouse secondary antibody (1:800) in PBS plus 3% BSA for 45 min on ice. The cells were then incubated with FITC-P1 as reported, fixed for 10 min in 4% (v/v) paraformaldehyde, and examined by confocal microscopy, as above.

Assay [2] has as its system EHEB cells. Put plainly: growth of EHEB cells (cell counting). The note with it: ML-191 0.5 μM, 96 h. Format: cell-based, human. As for the experimental part:
(§1) HEK293 cells were bought in 2012, from the American Type Culture Collection (ATCC catalogue number: CRL-11268), and were grown in monolayers in DMEM supplemented with 10% FBS, 2 mM L-glutamine, 100 U/ml penicillin, and 100 μg/ml streptomycin. HeLa cells were received from Dr. D. Corda, Institute of Protein Biochemistry, CNR, Naples, which were bought in 2006 from the European Collection of Cell Culture (ECACC catalog number: 93021013). Wild-type HeLa cells were maintained in MEM with 10% FBS, 2 mM L-glutamine, 100 U/ml penicillin, 100 μg/ml streptomycin, and nonessential amino acids (i.e., 100 μM glycine, L-alanine, L-asparagine, L-aspartic acid, L-glutamic acid, L-proline, L-serine). The HeLa clones were selected in the presence of 0.3 μg/ml puromycin. CHO cells were received from Dr. D. Corda, and were grown in DMEM supplemented with 10% FBS, 2 mM L-glutamine, 100 U/ml penicillin, 100 μg/ml streptomycin, and nonessential amino acids. EHEB cells are an Epstein-Barr-virus-immortalized cell line that was established from a chronic lymphocytic leukemia patient, and these were purchased from DSMZ (Deutsche Sammlung von Mikroorganismen und Zellkulturen GmbH, Braunschweig, Germany). DeFew cells are a non-Hodgkin lymphoma cell line, and these were obtained from Prof. G. Scala, ‘Magna Graecia’ University of Catanzaro [46–48]. Both of these human B-lymphoblastoid cell lines were maintained in RPMI 1640 with 10% heat-inactivated (30 min at 55°C) FBS, 2 mM L-glutamine, 100 U/ml penicillin, and 100 μg/ml streptomycin, and were routinely tested for BCR expression and anti-IgG stimulation, according to previous studies. All of the cells were grown in a humidified atmosphere of 5% CO2 and at 37°C return.
(§2) The EHEB cell growth rate was evaluated by cell counting. EHEB and DeFew cells were plated into 24-well plates in 400 μl growth medium at a density of 25,000 cells/ml. The cells were grown in the absence and presence of different agents, which were added immediately after cell plating and replenished every 24 h. Every 24 h, the cells were put through independent and blinded counts in triplicate, using a Neubauer cell-counting chamber. After 48 h, the cells were diluted 1:2 with fresh medium and 400 μl were transferred in a new 24-well for the following peptide additions. At 96 h, the cells were counted with 0.2% trypan blue, to determine cell viability.

The subject of the next assay is DeFew cells. Briefly: growth of DeFew cells (cell counting). Format: cell-based, human. The note with it: ML-191 0.5 μM, 96 h. As for the experimental part:
as §1, §2

Assay [3] has as its system EHEB cells. Put plainly: annexin-V staining of EHEB cells (FACS). Type of assay: cell-based, human. From the text:
In parallel, for analysis of apoptosis markers, 200,000 cells/sample were harvested, washed in PBS, stained with fluorescent annexin V using human annexin V-FITC kits (Bender MedSystems GmbH, Vienna, Austria), according to the manufacturer instructions, and analyzed by FACS.

Positions of bridges follow the written chain, without caps; N, C: chain ends. Residues, ends and D or L forms follow the SMILES beside them. *: point of attachment. FITC = O=C1OC2(c3ccc(O)cc3Oc3cc(O)ccc32)c2ccc(NC(=S)*)cc21; Ahx = NCCCCCC(=O)O

T1 sequence (Q9Y2T6 whole entry): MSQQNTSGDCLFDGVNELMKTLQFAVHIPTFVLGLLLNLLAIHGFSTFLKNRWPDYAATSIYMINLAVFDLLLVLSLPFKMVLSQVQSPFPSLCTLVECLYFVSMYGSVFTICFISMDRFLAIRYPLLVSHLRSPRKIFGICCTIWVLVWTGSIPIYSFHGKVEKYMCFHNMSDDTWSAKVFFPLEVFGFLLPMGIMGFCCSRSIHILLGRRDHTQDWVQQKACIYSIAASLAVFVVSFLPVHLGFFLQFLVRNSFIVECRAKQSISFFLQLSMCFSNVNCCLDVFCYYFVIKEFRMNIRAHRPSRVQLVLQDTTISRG

On to `CC(C)C[C@@H]1NC(=O)[C@H]([C@@H](C)O)NC(=O)[C@@H]2CCCN2C(=O)[C@H](CO)NC(=O)[C@H](CC(N)=O)NC(=O)[C@H](CCCCN)NC(=O)[C@H](CCCCN)NC(=O)[C@@H](NC(=O)CCCCCNC(=S)Nc2ccc3c(c2)C(=O)OC32c3ccc(O)cc3Oc3cc(O)ccc32)CSSC[C@@H](C(=O)O)NC1=O` [FITC-P1] ({FITC-Ahx}-CKKNSPTLC-OH; disulfide 1-9; N-terminus and C-terminus assumed), for which, in assay [1], the “binding to glycosylated versus deglycosylated GPR55” value was “bound equally to both glycosylated and deglycosylated GPR55-immunoprecipitates”. Besides, in the assay on GPR55 (HeLa cells) (50% reduction in GPR55 expression, four independent experiments), the “decrease in binding, siGPR55 relative to siNT” value was determined as 26%. Further, the “less binding to shGPR55 HeLa clones relative to shCtrl” value with GPR55 (HeLa cells) (90% decrease in GPR55 mRNA, three independent experiments) turned out to be 34%. Also, the “increase in binding on GPR55 re-expression in shGPR55 clones versus empty vector” value with GPR55 (HeLa cells) (three independent experiments) is given as 25%. In addition, in the assay on HA-GPR55, the “co-localization with GPR55” value is “distributed at the membrane level, with evident spots of co-localization”.
With `Cc1ccc(C2(C(=O)N3CCC(n4nc(-c5ccccc5)oc4=O)CC3)CC2)cc1` [ML-191], the Cell counts/ml is recorded as 578 ±49 ×1,000 in the assay on EHEB cells [2] (replenished every 24 h, DMSO 801 ±18, means ±SEM, n = 4 in duplicate, p <0.01) and 650 ±51 ×1,000 in the assay on DeFew cells (replenished every 24 h, DMSO 1053 ±41, means ±SEM, n = 4 in duplicate, p <0.01). In addition, the Growth inhibition entry is “(28%)” in the assay with EHEB cells [2] (relative to DMSO-treated cells) and “(38%)” in the assay on DeFew cells (relative to DMSO-treated cells). Moreover, the “annexin V cell decoration” value in the assay with EHEB cells [3] (biotinylated P1 1 μg/ml alone or streptavidin-bound, ML-191 0.5 μM) is reported as “did not increase annexin V cell decoration, similar to ML-191”.
For `COc1cccc2c1C(=O)c1c(O)c3c(c(O)c1C2=O)C[C@@](O)(C(=O)CO)C[C@@H]3O[C@H]1C[C@H](N)[C@H](O)[C@H](C)O1` [doxorubicin], the “annexin V cell decoration, positive control” value with EHEB cells [3] (doxorubicin 10 μM) is recorded as “different from cells treated with the pro-apoptotic agent doxorubicin (10 μM)”.
